What was measured:
Assay type in all cases: in vivo
wheat [1] = assay: Experiment 9 wheat yield, field test conditions; conditions: crop maturation (approximately 90 days)
Experimental: For the Experiments described below, application of 1,2-dimethyl-4-dimethylaminomethyl-5-hydroxy benzimidazole (referred to herein as INTRINSICTM) was by way of seed treatment. Treated seeds were prepared by mixing 1.0 kg of seed and 2.0 mL of an aqueous solution of INTRINSICTM comprising 0.1% potassium hydroxide in a ZIPLOCTM bag. Control seeds were prepared by mixing 1.0 kg of seed and 2.0 mL of aqueous 0.1% potassium hydroxide solution in a ZIPLOCTM bag. The seeds and solutions were sufficiently mixed to wet the seeds. The seeds were dried after being wetted. […] Experiment 9 tested the effects of 40 ppm INTRINSICTM, CRUISER […], and the combination of the two, on wheat yield under field test conditions. CRUISER […] was applied per the manufacturer's recommendations. FIGS. 9(a) and 9(b) display yield results at crop maturation (approximately 90 days), showing greater yield crops from INTRINSICTM-treated seeds (whether alone or in combination with CRUISER […]) compared to crops from control seeds.

wheat [2] = assay: Experiment 6 wheat growth, field test conditions; conditions: 20 ppm and 40 ppm, alone and combined with CRUISER MAXX™ and DIVIDEND™, 10 days
Experimental: For the Experiments described below, application of 1,2-dimethyl-4-dimethylaminomethyl-5-hydroxy benzimidazole (referred to herein as INTRINSICTM) was by way of seed treatment. Treated seeds were prepared by mixing 1.0 kg of seed and 2.0 mL of an aqueous solution of INTRINSICTM comprising 0.1% potassium hydroxide in a ZIPLOCTM bag. Control seeds were prepared by mixing 1.0 kg of seed and 2.0 mL of aqueous 0.1% potassium hydroxide solution in a ZIPLOCTM bag. The seeds and solutions were sufficiently mixed to wet the seeds. The seeds were dried after being wetted. […] Experiment 6 tested the effects of 20 ppm and 40 ppm INTRINSICTM, alone and combined with known seed treatments (CRUISER […] and […], from SyngentaTM Canada Inc., applied per manufacturer's recommendations), on wheat growth under field test conditions.

canola [3] = assay: Experiment 7 canola growth, field test conditions, first site; conditions: 20 ppm and 40 ppm seed treatment, 10 days
Experimental: (§1) For the Experiments described below, application of 1,2-dimethyl-4-dimethylaminomethyl-5-hydroxy benzimidazole (referred to herein as INTRINSIC™) was by way of seed treatment. Treated seeds were prepared by mixing 1.0 kg of seed and 2.0 mL of an aqueous solution of INTRINSIC™ comprising 0.1% potassium hydroxide in a ZIPLOC™ bag. Control seeds were prepared by mixing 1.0 kg of seed and 2.0 mL of aqueous 0.1% potassium hydroxide solution in a ZIPLOC™ bag. The seeds and solutions were sufficiently mixed to wet the seeds. The seeds were dried after being wetted. […] Experiments 7 and 8 tested the effects of 20 ppm and 40 ppm INTRINSIC™, on canola growth under field test conditions.

soy bean [4] = assay: Experiment 4 soy bean root growth, greenhouse conditions; conditions: 40 ppm seed treatment; 10 days
Experimental: as §1, with “Experiment 4” for “Experiments 7 and 8”, “of” for “of 20 ppm and”, “INTRINSIC™” for “INTRINSIC™,”, “soy bean root” for “canola”, “greenhouse” for “field test”

soy bean [5] = assay: Experiment 12 soy bean yield, field test conditions; conditions: 20 ppm and 40 ppm seed treatment; crop maturation (approximately 90 days)
Experimental: For the Experiments described below, application of 1,2-dimethyl-4-dimethylaminomethyl-5-hydroxy benzimidazole (referred to herein as INTRINSIC™) was by way of seed treatment. Treated seeds were prepared by mixing 1.0 kg of seed and 2.0 mL of an aqueous solution of INTRINSIC™ comprising 0.1% potassium hydroxide in a ZIPLOC™ bag. Control seeds were prepared by mixing 1.0 kg of seed and 2.0 mL of aqueous 0.1% potassium hydroxide solution in a ZIPLOC™ bag. The seeds and solutions were sufficiently mixed to wet the seeds. The seeds were dried after being wetted. […] Experiment 12 tested the effects of 20 ppm and 40 ppm INTRINSIC™ on soy bean yield under field test conditions. FIGS. 12(a) and 12(b) display yield results at crop maturation (approximately 90 days), showing greater yield crops from treated seeds compared to crops from control seeds.

wheat [6] = assay: Experiment 1 wheat seed germination, laboratory conditions, seedling trays; conditions: 20 ppm and 40 ppm seed treatment
Experimental: as §1, with “Experiment 1” for “Experiments 7 and 8”, “INTRINSIC™” for “INTRINSIC™,”, “wheat seed germination” for “canola growth”, “laboratory” for “field test”, “conditions. Treated and control seeds were grown in seedling trays lined with moistened tissue.” for “conditions.”

corn = assay: Experiment 5 corn root growth, greenhouse conditions; conditions: 40 ppm seed treatment; 10 days
Experimental: as §1, with “Experiment 5” for “Experiments 7 and 8”, “of” for “of 20 ppm and”, “INTRINSIC™” for “INTRINSIC™,”, “corn root” for “canola”, “greenhouse” for “field test”

canola [7] = assay: Experiment 8 canola growth, field test conditions, second site; conditions: 10 days
Experimental: as §1

wheat [8] = assay: Experiment 2(a) wheat root growth, laboratory conditions, seedling trays; conditions: 20 ppm and 40 ppm seed treatment; 72 hours; FIG. 2(a)
Experimental: as §1, with “Experiment 2(a)” for “Experiments 7 and 8”, “INTRINSIC™” for “INTRINSIC™,”, “wheat root” for “canola”, “laboratory” for “field test”, “conditions. Treated and control seeds were grown in seedling trays lined with moistened tissue. Experiment 2(b) tested the effects of 40 ppm INTRINSIC™ on wheat root growth under greenhouse conditions. Experiment 2(c) tested the effects of 40 ppm INTRINSIC™ on wheat root growth under laboratory conditions. Treated and control seeds were grown in agar culture medium. Results at 8 days are shown Figure in FIG. 2(c).” for “conditions.”

wheat [9] = assay: Experiment 2(b) wheat root growth, greenhouse conditions; conditions: 40 ppm seed treatment, 10 days, FIG. 2(b)
Experimental: as §1, with “Experiment 2(a)” for “Experiments 7 and 8”, “INTRINSIC™” for “INTRINSIC™,”, “wheat root” for “canola”, “laboratory” for “field test”, “conditions. Treated and control seeds were grown in seedling trays lined with moistened tissue. Experiment 2(b) tested the effects of 40 ppm INTRINSIC™ on wheat root growth under greenhouse conditions. Experiment 2(c) tested the effects of 40 ppm INTRINSIC™ on wheat root growth under laboratory conditions. Treated and control seeds were grown in agar culture medium. Results at 8 days are shown Figure in FIG. 2(c).” for “conditions.”

canola [10] = assay: Experiment 10 canola yield, field test conditions, first site; conditions: 20 ppm and 40 ppm seed treatment, crop maturation (approximately 90 days)
Experimental: (§2) For the Experiments described below, application of 1,2-dimethyl-4-dimethylaminomethyl-5-hydroxy benzimidazole (referred to herein as INTRINSIC™) was by way of seed treatment. Treated seeds were prepared by mixing 1.0 kg of seed and 2.0 mL of an aqueous solution of INTRINSIC™ comprising 0.1% potassium hydroxide in a ZIPLOC™ bag. Control seeds were prepared by mixing 1.0 kg of seed and 2.0 mL of aqueous 0.1% potassium hydroxide solution in a ZIPLOC™ bag. The seeds and solutions were sufficiently mixed to wet the seeds. The seeds were dried after being wetted. […] Experiments 10 and 11 tested the effects of 20 ppm and 40 ppm INTRINSIC™ on canola yield under field test conditions. FIGS. 10(a) and 10(b) display yield results at crop maturation (approximately 90 days) at a first site, showing greater yield crops from treated seeds compared to crops from control seeds. FIGS. 11(a) and 11(b) display yield results at crop maturation (approximately 90 days) at a second site, again showing greater yield crops from treated seeds compared to crops from control seeds.

canola [11] = assay: Experiment 3 canola root growth, greenhouse conditions; conditions: 40 ppm seed treatment; 10 days
Experimental: as §1, with “Experiment 3” for “Experiments 7 and 8”, “of” for “of 20 ppm and”, “INTRINSIC™” for “INTRINSIC™,”, “canola root” for “canola”, “greenhouse” for “field test”

wheat [12] = assay: Experiment 2(c) wheat root growth, laboratory conditions, agar culture medium; conditions: 40 ppm seed treatment, 8 days, FIG. 2(c)
Experimental: as §1, with “Experiment 2(a)” for “Experiments 7 and 8”, “INTRINSIC™” for “INTRINSIC™,”, “wheat root” for “canola”, “laboratory” for “field test”, “conditions. […] Experiment 2(b) tested the effects of 40 ppm INTRINSIC™ on wheat root growth under greenhouse conditions. Experiment 2(c) tested the effects of 40 ppm INTRINSIC™ on wheat root growth under laboratory conditions. Treated and control seeds were grown in agar culture medium. Results at 8 days are shown Figure in FIG. 2(c).” for “conditions.”

canola [13] = assay: Experiment 11 canola yield, field test conditions, second site; conditions: 20 ppm and 40 ppm seed treatment, crop maturation (approximately 90 days)
Experimental: as §2

[14] = 20 ppm and 40 ppm seed treatment
[15] = 40 ppm seed treatment, another set of tests

For `Cc1nc2c(CN(C)C)c(O)ccc2n1C` [INTRINSIC™, 1,2-dimethyl-4-dimethylaminomethyl-5-hydroxy benzimidazole], the “wheat yield compared to crops from control seeds” value (wheat [1]; 40 ppm seed treatment alone) was “greater yield”, the “wheat yield compared to crops from control seeds” value (wheat [1]; 40 ppm seed treatment in combination with CRUISER MAXX™) was “greater yield” and the “root length compared to control seedlings” value (wheat [2]) was “significant increases”. For the same compound, the “root surface area compared to control seedlings” value (wheat [2]) was “significant increases”, the “root weight compared to control seedlings” value (wheat [2]; another set of tests) was “significant increases” and the “shoot weight compared to control seedlings” value (wheat [2]; another set of tests) was “significant increases”. The “root length compared to control seedlings” value (canola [3]) was “significant increases”, the “root surface area compared to control seedlings” value (canola [3]) was “significant increases” and the “root weight compared to control seedlings” value (canola [3]; another set of tests) was “significant increases”. The “shoot weight compared to control seedlings” value (canola [3]; another set of tests) was “significant increases”, the “foliage size compared to control seedlings” value (soy bean [4]) was “larger foliage” and the “number of roots compared to control seedlings” value (soy bean [4]) was “greater number of roots”. The “soy bean yield compared to crops from control seeds” value (soy bean [5]) was “greater yield”, the “number of wheat seeds broken open compared to control” value (wheat [6]; 24 hours) was “greater number” and the “number of roots compared to control seedlings” value (wheat [6]; 48 h, 72 h and 96 h) was “greater number of roots”. For the same compound, the “root length compared to control seedlings” value (wheat [6]; 48 h, 72 h and 96 h) was “longer roots”, the “shoot length compared to control seedlings” value (wheat [6]; 48 h, 72 h and 96 h) was “longer shoots” and the “foliage size compared to control seedlings” value (corn) was “larger foliage”. The “number of roots compared to control seedlings” value (corn) was “greater number of roots”, the “root length compared to control seedlings” value (canola [7]; [14]) was “significant increases” and the “root surface area compared to control seedlings” value (canola [7]; [14]) was “significant increases”. The “root weight compared to control seedlings” value (canola [7]; [15]) was “significant increases”, the “shoot weight compared to control seedlings” value (canola [7]; [15]) was “significant increases” and the “number of roots compared to control seedlings” value (wheat [8]) was “greater number of roots”. For the same compound, the “root length compared to control seedlings” value (wheat [8]) was “longer roots”, the “shoot length compared to control seedlings” value (wheat [8]) was “longer shoots” and the “number of roots compared to control seedlings” value (wheat [9]) was “greater number of roots”. The “root length compared to control seedlings” value (wheat [9]) was “longer roots”, the “shoot length compared to control seedlings” value (wheat [9]) was “longer shoots” and the “canola yield compared to crops from control seeds” value (canola [10]) was “greater yield”. The “foliage size compared to control seedlings” value (canola [11]) was “larger foliage”, the “number of roots compared to control seedlings” value (canola [11]) was “greater number of roots” and the “root length compared to control seedlings” value (canola [11]) was “longer roots”. For the same compound, the “number of roots compared to control seedlings” value (wheat [12]) was “greater number of roots”, the “root length compared to control seedlings” value (wheat [12]) was “longer roots” and the “shoot length compared to control seedlings” value (wheat [12]) was “longer shoots”. For the same compound, the “canola yield compared to crops from control seeds” value (canola [13]) was “greater yield”.

— US9018392B1, “Compounds, compositions and methods for crop enhancement” (Active AgriProducts Inc., priority 2014, dated 2015)
